Where a name gives a salt, the structure may show the parent alone. Read-outs that look alike come from different tables or passages of the source. Values belong to the compound of their own block, whether it stands above or below them.
Legend:
FS MUC1 = assay: Automated fixation/staining imaging assay, FS MUC1 spot cytoplasm (Example 3); format: cell-based; conditions: 48 hour treatment time; for FS MUC1 Spot Cytoplasm Avg Emax: in % (unit assumed)
Excerpt: (§1) Prepared Renal Life Media by adding the supplements provided in the kit, substituting the FBS provided with Tet system approved FBS, and filtering the media (not including provided kit antibiotics). Thawed P6 vial(s) into T175 flasks 2 weeks prior to screening. Cells have to be passaged at least once after thaw before they can be used for screening. Hyperflasks can be used depending on the cell number needed. One confluent T175 flask should give at least 25 million cells. Cells should not be split beyond 1:2-1:4 and should only be trypsinized 1×/week. Cells must be spun down after each typsinization. Flasks must be confluent at time of plating. Flasks were incubated at 37° C., 5% CO2, 98% humidity. Cells can only be cultured for up to 10 passages before a new vial will need to be thawed.
(§2) • Day 1: Cells are plated. • Day 2: Compounds are transferred into assay plates with Echo (24 hours post-seeding) • Day 3: Begin preparing reagents for fixation and staining. • Day 4: Plates are fixed and stained (48 hour treatment time) on automated system and subsequently imaged on Opera Phenix. • Day 5: Data analysis and reporting is performed. Plate Preparation:
(§3) Calculated cell number needed and media volume needed for the run (MAX 20 plates/run). Cells were seeded into Synthemax-coated 384-well Cell Carrier plates at a density of 12,000 cells/well in 40 ul of Renal Life Media/well. Calculated for an extra 2-3 plate volumes to account for volume needed to fill the Combi cassette lines and left dead volume of cell suspension. (20 ul added with Combi after compound addition for total 60 ul assay volume, due to volume constraints of Echo transfer process). Trypsinized cells with 3 ml/T175 flask of TrypLE™ Express Enzyme 1X. Then spun down cells and resuspend in 10 ml media. Counted the cells using Nexcelom Cellometer K2. Prepared a mixture of 20 ul cell suspension/20 ul Cellometer AOPI Stain (#CS2-0106) and then add 20 ul of the 2 fold diluted mixture onto a Cellometer slide. Counted the cells by using the Dual Stain option and following the prompts. Recorded the live cell density, viability, and current passage number and date in notebook. Used the live cell density in calculating how to prepare the cell seeding suspension. Mixed the cell suspension thoroughly but gently. Once Combi cassette cleaned and cell suspension was made, dispensed 40 ul of cell suspension per well into the Synthemax-coated Cell Carrier assay plates. Immediately after seeding, stored the assay plates in the Liconic Incubator on the enclosed system in the 3100 automation lab, spaced plates out every other slot in stackers to maximize air flow.
(§4) Generated Arxspan Run ID to record compound transfer in CBIP. Spun down compound plates and assay plates 2000 RPM 10 sec. Load assay plates into Echo system incubator. Coordinated plate locations and record RUN ID with automation team member. Ran protocol for 100 nl transfer according to designated plate layout/template. When run was completed, added 20 ul of media/well for all assay plates with Combi in hood in Tissue culture room. Returned plates to the incubator in the enclosed system for 48 hour treatment time.
(§5) Heated up solution (100° C. on stir plate) and dissolved Roche Blocking reagent by stirring. The resulting solution was cloudy. Stored at 4° C. and used within one week or froze aliquots at −20° C. Combi 4: 1° Antibody Cocktail: Prepared the day of experiment. Swirled to mix. […] Prepared solution in Corning 250 ml conical flask and covered with tinfoil to protect from light.
(§6) Combi 5: 2° Antibody Cocktail: Prepared the day of experiment. Swirlrf to mix. […] Prepared solution in Corning 250 ml conical flask and covered with tinfoil to protect from light.
(§7) Removed media using BioTek plate washer. (PEKASP62) Moved plates to Combi. Combi 1. Dispensed 40 μl of 4% PFA (Combi on MEDIUM Speed). Incubated plates 20 minutes. Washed two times on BioTek plate washer. (PEK26X2)
(§8) Moved plates to Combi. Combi 2. […]

NUCB1 = assay: Automated fixation/staining imaging assay, NUCB1 intensity (Example 3); format: cell-based; conditions: 48 hour treatment time; for NUCB1 Intensity Avg Emax: in % (unit assumed)
Excerpt: as §1, §2, §3, §4, §5, §6, §7, §8

P cells = assay: in vitro cellular potency of TA compounds determined in P cells; format: cell-based
MUC1-wt = assay: Immunofluorescence imaging of MUC1-wt in P cells (Example 2); format: cell-based; conditions: for EC50: 48 hr incubation, MUC1-wt; for WT ECMax (%): DMSO = 0, JQ1 (250 nM) = −100% activity
Summary of the method: (§9)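 P cells were treated for 48 h with 5-dose (35–0.0035 μM) or 10-dose (16–0.0008 μM) series, in duplicate. Fixed cells were immunostained for MUC1-fs, MUC1-wt, GM130 and Hoechst nuclei. Per-cell cytoplasmic intensity was normalized with DMSO as 0% and JQ1 (250 nM) as −100%; cell number was normalized to DMSO.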

MUC1-fs = assay: Immunofluorescence imaging of MUC1-fs in P cells (Example 2); format: cell-based; conditions: for EC50: 48 hr incubation, MUC1-fs; for ECMax (%): DMSO = 0, JQ1 (250 nM) = −100% activity
Summary of the method: as §9

[1] = Test agent stability on storage; format: physicochemical; conditions: storage 4° C.; refrigerated and room temperature
[2] = 48 hr, DMSO = 0, JQ1 = −100% activity, in %

IC50 (FS MUC1): 2.43 µM
EC50 (NUCB1): 4.93 µM
EC50 (MUC1-wt; read-out: WT EC50): > 16000 nM
EC50 (MUC1-fs; read-out: EC50): 2430 nM
SMILES: CC1(C)[C@H]2CC[C@H](C2)[C@@]1(C)N (racemic) [Compound 242, rac-2,3,3-trimethylbicyclo[2.2.1]heptan-2-amine hydrochloride]
FS MUC1 Spot Cytoplasm Avg Emax (FS MUC1): −67.4
NUCB1 Intensity Avg Emax (NUCB1): −85.46
WT EMax (MUC1-wt; [2]): 27.7
Emax (MUC1-fs; [2]): −67.4

IC50 (FS MUC1): 6.45 µM
SMILES: CC(C)[C@@H]1[C@H]2CC[C@H](C2)[C@@]1(C)N (racemic) [Compound 256]
FS MUC1 Spot Cytoplasm Avg Emax (FS MUC1): −65.11

IC50 (FS MUC1): 5.87 µM
EC50 (NUCB1): 9.77 µM
SMILES: CC(C)[C@@H]1[C@@H]2CC[C@@H](C2)[C@]1(C)N (single isomer, unassigned) [Compound 258]
FS MUC1 Spot Cytoplasm Avg Emax (FS MUC1): −67.73
NUCB1 Intensity Avg Emax (NUCB1): −89.37

IC50 (FS MUC1): 2.94 µM
EC50 (NUCB1): 14.6 µM
SMILES: CC(C)[C@H]1[C@@H]2CC[C@@H](C2)[C@]1(C)N (single isomer, unassigned) [Compound 259]
FS MUC1 Spot Cytoplasm Avg Emax (FS MUC1): −59.03
NUCB1 Intensity Avg Emax (NUCB1): −53

IC50 (FS MUC1): 0.24 µM
SMILES: CC(C)[C@H]1[C@H]2CC[C@H](C2)[C@]1(C)N (single isomer, unassigned) [Compound 251]
FS MUC1 Spot Cytoplasm Avg Emax (FS MUC1): −72.07

IC50 (FS MUC1): 8.25 µM
SMILES: CC(C)[C@H]1[C@H]2CC[C@H](C2)[C@]1(C)N (racemic) [Compound 255]
FS MUC1 Spot Cytoplasm Avg Emax (FS MUC1): −67.5

The next lines start with the compound.

SMILES: N[C@]1(c2ccccc2)[C@@H]2CC[C@@H](C2)C12CCCC2 (racemic) [Compound 252]
IC50 (FS MUC1): 7.83 µM
FS MUC1 Spot Cytoplasm Avg Emax (FS MUC1): −86.32
EC50 (NUCB1): 11.2 µM
NUCB1 Intensity Avg Emax (NUCB1): −72.37

SMILES: CC[C@@]1(C)[C@H]2CC[C@H](C2)[C@H]1N (single isomer, unassigned) [Compound 203-P1]
EC50 (P cells): 40 nM
EC50 (MUC1-wt; read-out: WT EC50 (Cytoplasm)): 2700 nM
WT ECMax (%) (MUC1-wt; 48 hr): 91.48%
EC50 (MUC1-fs; read-out: EC50(Spot)): 50 nM
ECMax (%) (MUC1-fs; 48 hr): −76.02%
Stability/expiration date [1]: Stable when refrigerated and at room temperature for few hours

SMILES: CC(C)[C@@H]1[C@H]2CC[C@H](C2)[C@@]1(C)N (single isomer, unassigned) [Compound 257]
IC50 (FS MUC1): 0.0969 µM
FS MUC1 Spot Cytoplasm Avg Emax (FS MUC1): −74.94

SMILES: CC(C)[C@H]1[C@H]2CC[C@H](C2)[C@@]1(C)N (racemic) [Compound 254]
IC50 (FS MUC1): 8.52 µM
FS MUC1 Spot Cytoplasm Avg Emax (FS MUC1): −69.07

SMILES: C[C@]1(N)C[C@H]2CC[C@@H]1C2 (single isomer, unassigned) [Compound 253]
IC50 (FS MUC1): 8.58 µM
FS MUC1 Spot Cytoplasm Avg Emax (FS MUC1): −52.28
NUCB1 Intensity Avg Emax (NUCB1): −21.51

SMILES: CC[C@@]1(C)[C@@H]2CC[C@@H](C2)[C@@H]1N (single isomer, unassigned) [Compound 202-P2]
EC50 (P cells): 14 nM
EC50 (MUC1-wt; read-out: WT EC50 (Cytoplasm)): > 1800 nM
WT ECMax (%) (MUC1-wt; 48 hr): ~175%
EC50 (MUC1-fs; read-out: EC50(Spot)): 20 nM
ECMax (%) (MUC1-fs; 48 hr): −76%
Stability/expiration date [1]: Stable when refrigerated and at room temperature for few hours

SMILES: CC[C@]1(C)[C@H]2CC[C@H](C2)[C@H]1N (single isomer, unassigned) [Compound 202-P1]
EC50 (P cells): 26 nM
EC50 (MUC1-wt; read-out: WT EC50 (Cytoplasm)): 4040 nM
WT ECMax (%) (MUC1-wt; 48 hr): ~150%
EC50 (MUC1-fs; read-out: EC50(Spot)): 40 nM
ECMax (%) (MUC1-fs; 48 hr): −77.14%
Stability/expiration date [1]: Stable when refrigerated and at room temperature for few hours

SMILES: CC[C@]1(C)[C@@H]2CC[C@@H](C2)[C@@H]1N (single isomer, unassigned) [Compound 203-P2]
EC50 (P cells): 46 nM
EC50 (MUC1-wt; read-out: WT EC50 (Cytoplasm)): 2600 nM
WT ECMax (%) (MUC1-wt; 48 hr): 95%
EC50 (MUC1-fs; read-out: EC50(Spot)): 40 nM
ECMax (%) (MUC1-fs; 48 hr): −75%
Stability/expiration date [1]: Stable when refrigerated and at room temperature for few hours
